{"source": "patent EP0100673A2", "about": "“A method of enhancing neurofiber regrowth” (THE RESEARCH FOUNDATION OF STATE UNIVERSITY OF NEW YORK, priority 1982, dated 1984)", "key": {"[1]": {"tested_on": "sciatic nerve", "assay": "Counts of myelinated and unmyelinated axons 5.0 mm distal to repair by electron microscopy", "format": "in vivo, rat", "conditions": "Electron Microscopy; for #Myelinated Axons / #Unmyelinated Axons: 5.0mm. Distal to Repair, 12 mg/kg in 5% DMSO, bath + i.m. twice weekly", "experimental": "(§1) lwenty raty art anenthetizve with sel rompun (0.5 cc total volume). The right sciatic nerve is exposed and severed with microneuroscissors, and subsequently repaired microsurgically with 6-8 circumferential microsutures using 10-0 nylon. Immediately following surgery the treated animals receive 12 mg/kg Ac leupeptin in 5% DMSO (dimethylsulphoxide) as a bath on their sciatic nerve, 0.25 cc. total volume. Then the treated animals are injected intramuscularly in right hindlimb with 0.25 cc of a solution containing 12 mg/kg Ac leupeptin in 5% DMSO. Control animals receive the same surgical treatment, but the bath and intramuscular injection consist only of the solvent and 5% DMSO.\n(§2) Thereafter, treated animals are injected twice weekly in the operated hindlimb with 12 mg/kg Ac leupeptin in 5% DMSO (0.25 cc total volume) for periods of 1 week, 1 month, two months, three months - and six months. Control animals are injected with 0.25 cc of 5% DMSO twice weekly in the operated hindlimb for the same time period.\n(§3) Two treated and two control animals are assigned to each of the stated time periods.\nA ten mm. portion of the repaired sciatic nerve is excised from each animal. This is fixed in 3.0% glutaraldehyde in 0.1 M sodium cacodylate, pH 7.3, overnight for electron microscopy. After post-fixation in 1.0% osmium tetroxide, ethanol dehydration and embedding in Polybed 812, both thick (1 micron) and thin (500 A°) transverse sections are cut on a ultramicrotome. Portions of the excised muscles receive similar preparation for electron microscopy.\nThick sections of the sciatic nerve are placed on microscope slots stained with toluidine blue and photographed at a constant magnification in the light microscope. Thin sections of both nerve and muscles are placed on 300 mesh copper grid calm, stained with uranyl acetate and lead citrate and photographed using a Hitachi HU-12 electron microscope."}, "[2]": {"tested_on": "muscles of the operated hindlimb", "assay": "Myofiber diameter by light microscopy after sciatic nerve severing and microsurgical repair", "format": "in vivo, rat", "conditions": "for Average Myofiber Diameter (µm) by Light Microscopy: 12 mg/kg in 5% DMSO, bath + i.m. twice weekly; for % Difference Treated vs. Control: myofiber diameter", "experimental": "as §1, §2, §3\nAll animals are sacrified by an overdose of pentobarbital, 1.0 cc total volume. The gastro- cnemius, soleus and extensor digitorum longus muscles of the operated hindlimb are execised from origin to insertion, weighed and then frozen in isopentane in liquid nitrogen […]. For light microscopy, cryostat sections are cut, placed on slides and stained with hematoxylin and eosin and/or ATPase histochemistry at pH's of 4.3 and 10.4. Myofiber diameters are determined by photographing hematoxylin and eosin sections at a constant magnification in the light microscope."}}, "data": [{"smiles": "CC(=O)N[C@@H](CC(C)C)C(=O)N[C@@H](CC(C)C)C(=O)N[C@H](C=O)CCCNC(=N)N", "note": "[Ac leupeptin, acetyl-L-leu-L-leu-L-argininal]", "values": [{"measurement": "#Myelinated Axons", "setting": "[1]; One month treated", "value": "1.2 Per 200 μm^2 of Area"}, {"measurement": "#Unmyelinated Axons", "setting": "[1]; One month treated", "value": "8 Per 200 μm^2 of Area"}, {"measurement": "#Myelinated Axons", "setting": "[1]; One week treated", "value": "4.25 Per 200 μm^2 of Area"}, {"measurement": "#Unmyelinated Axons", "setting": "[1]; One week treated", "value": "11.0 Per 200 μm^2 of Area"}, {"measurement": "#Myelinated Axons", "setting": "[1]; Six Month Treated", "value": "5 Per 200 μm^2 of Area"}, {"measurement": "#Unmyelinated Axons", "setting": "[1]; Six Month Treated", "value": "8.7 Per 200 μm^2 of Area"}, {"measurement": "#Myelinated Axons", "setting": "[1]; Three month treated", "value": "9.0 Per 200 μm^2 of Area"}, {"measurement": "#Unmyelinated Axons", "setting": "[1]; Three month treated", "value": "12.9 Per 200 μm^2 of Area"}, {"measurement": "#Myelinated Axons", "setting": "[1]; Two Month Treated", "value": "6 Per 200 μm^2 of Area"}, {"measurement": "#Unmyelinated Axons", "setting": "[1]; Two Month Treated", "value": "18 Per 200 μm^2 of Area"}, {"measurement": "% Difference Treated vs. Control", "setting": "[1]; #Myelinated Axons distal, One month", "value": 25, "unit": "%"}, {"measurement": "% Difference Treated vs. Control", "setting": "[1]; #Myelinated Axons distal, One week", "value": 53, "unit": "%"}, {"measurement": "% Difference Treated vs. Control", "setting": "[1]; #Myelinated Axons distal, Six Month", "value": 1, "unit": "%"}, {"measurement": "% Difference Treated vs. Control", "setting": "[1]; #Myelinated Axons distal, Three month", "value": 58, "unit": "%"}, {"measurement": "% Difference Treated vs. Control", "setting": "[1]; #Myelinated Axons distal, Two Month", "value": 0, "unit": "%"}, {"measurement": "% Difference Treated vs. Control", "setting": "[1]; #Unmyelinated Axons distal, One month", "value": 70, "unit": "%"}, {"measurement": "% Difference Treated vs. Control", "setting": "[1]; #Unmyelinated Axons distal, One week", "value": ">100", "unit": "%"}, {"measurement": "% Difference Treated vs. Control", "setting": "[1]; #Unmyelinated Axons distal, Six Month", "value": "+30%"}, {"measurement": "% Difference Treated vs. Control", "setting": "[1]; #Unmyelinated Axons distal, Three month", "value": 61, "unit": "%"}, {"measurement": "% Difference Treated vs. Control", "setting": "[1]; #Unmyelinated Axons distal, Two Month", "value": 50, "unit": "%"}, {"measurement": "Average Myofiber Diameter (µm) by Light Microscopy", "setting": "[2]; One Month Treated, E.D.L.", "value": 34.1, "unit": "µm"}, {"measurement": "Average Myofiber Diameter (µm) by Light Microscopy", "setting": "[2]; One Month Treated, GASTROCNEMIUS", "value": 34.5, "unit": "µm"}, {"measurement": "Average Myofiber Diameter (µm) by Light Microscopy", "setting": "[2]; One Month Treated, SOLEUS", "value": 39.4, "unit": "µm"}, {"measurement": "Average Myofiber Diameter (µm) by Light Microscopy", "setting": "[2]; One Week Treated, E.D.L.", "value": 44.6, "unit": "µm"}, {"measurement": "Average Myofiber Diameter (µm) by Light Microscopy", "setting": "[2]; One Week Treated, GASTROCNEMIUS", "value": 62.3, "unit": "µm"}, {"measurement": "Average Myofiber Diameter (µm) by Light Microscopy", "setting": "[2]; One Week Treated, SOLEUS", "value": 49.2, "unit": "µm"}, {"measurement": "Average Myofiber Diameter (µm) by Light Microscopy", "setting": "[2]; Six Month Treated, E.D.L.", "value": 75.3, "unit": "µm"}, {"measurement": "Average Myofiber Diameter (µm) by Light Microscopy", "setting": "[2]; Six Month Treated, GASTROCNEMIUS", "value": 73.1, "unit": "µm"}, {"measurement": "Average Myofiber Diameter (µm) by Light Microscopy", "setting": "[2]; Six Month Treated, SOLEUS", "value": 79.5, "unit": "µm"}, {"measurement": "Average Myofiber Diameter (µm) by Light Microscopy", "setting": "[2]; Three Month Treated, E.D.L.", "value": 44.3, "unit": "µm"}, {"measurement": "Average Myofiber Diameter (µm) by Light Microscopy", "setting": "[2]; Three Month Treated, GASTROCNEMIUS", "value": 57.2, "unit": "µm"}, {"measurement": "Average Myofiber Diameter (µm) by Light Microscopy", "setting": "[2]; Three Month Treated, SOLEUS", "value": 47.9, "unit": "µm"}, {"measurement": "Average Myofiber Diameter (µm) by Light Microscopy", "setting": "[2]; Two Month Treated, E.D.L.", "value": 28.9, "unit": "µm"}, {"measurement": "Average Myofiber Diameter (µm) by Light Microscopy", "setting": "[2]; Two Month Treated, GASTROCNEMIUS", "value": 35.4, "unit": "µm"}, {"measurement": "Average Myofiber Diameter (µm) by Light Microscopy", "setting": "[2]; Two Month Treated, SOLEUS", "value": 42.3, "unit": "µm"}, {"measurement": "% Difference Treated vs. Control", "setting": "[2]; One Month, E.D.L.", "value": "+7%"}, {"measurement": "% Difference Treated vs. Control", "setting": "[2]; One Month, GASTROCNEMIUS", "value": "+3%"}, {"measurement": "% Difference Treated vs. Control", "setting": "[2]; One Month, SOLEUS", "value": "+24%"}, {"measurement": "% Difference Treated vs. Control", "setting": "[2]; One Week, E.D.L.", "value": "+5%"}, {"measurement": "% Difference Treated vs. Control", "setting": "[2]; One Week, GASTROCNEMIUS", "value": "+23%"}, {"measurement": "% Difference Treated vs. Control", "setting": "[2]; One Week, SOLEUS", "value": "+9%"}, {"measurement": "% Difference Treated vs. Control", "setting": "[2]; Six Month, E.D.L.", "value": "+29%"}, {"measurement": "% Difference Treated vs. Control", "setting": "[2]; Six Month, GASTROCNEMIUS", "value": "+26%"}, {"measurement": "% Difference Treated vs. Control", "setting": "[2]; Six Month, SOLEUS", "value": "+30%"}, {"measurement": "% Difference Treated vs. Control", "setting": "[2]; Three Month, E.D.L.", "value": "+18%"}, {"measurement": "% Difference Treated vs. Control", "setting": "[2]; Three Month, GASTROCNEMIUS", "value": "+3%"}, {"measurement": "% Difference Treated vs. Control", "setting": "[2]; Three Month, SOLEUS", "value": "+9%"}, {"measurement": "% Difference Treated vs. Control", "setting": "[2]; Two Month, E.D.L.", "value": "+10%"}, {"measurement": "% Difference Treated vs. Control", "setting": "[2]; Two Month, GASTROCNEMIUS", "value": "+18%"}, {"measurement": "% Difference Treated vs. Control", "setting": "[2]; Two Month, SOLEUS", "value": "+10%"}, {"measurement": "myofiber diameter", "setting": "[2]; treated muscle compared to control", "value": "significantly greater myofiber diameter when compared to control"}]}]}
